Results taken from PubChem BioAssay (NCI).
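Test compounds were applied to cells in 96-well plates for 48 hours at 5 doses. The concentration for 50% growth inhibition is given as GI50. TGI: total growth inhibition.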

Columns and labels:
Assay in all cases: NCI tumour cell line growth inhibition, 48 h
[1] = test system: CAKI-1 renal
[2] = test system: NCI-H522 lung
[3] = test system: OVCAR-4 ovarian
[4] = test system: OVCAR-5 ovarian
[5] = test system: SF-295 CNS
[6] = test system: SK-OV-3 ovarian
[7] = test system: U251 CNS
[8] = test system: UO-31 renal
[9] = test system: COLO 205 colon
[10] = test system: A549 NSCLC

Structure (SMILES) | TGI [1] | TGI [2] | TGI [3] | TGI [4] | TGI [5] | TGI [6] | TGI [7] | TGI [8] | TGI [9] | TGI [10] | GI50 [1] | GI50 [10] | GI50 [9] | GI50 [2] | GI50 [3] | GI50 [4] | GI50 [5] | GI50 [6] | GI50 [7] | GI50 [8]
COc1ccc2c(c1)C(=O)/C(=C/c1ccccc1)C2 | 60.1 µM | > 100 µM | > 100 µM | > 100 µM | > 100 µM | > 100 µM | > 100 µM | > 100 µM | – | – | – | – | – | – | – | – | – | – | – | –
COc1cc(CN(C)N2C(=O)c3cccc4cc([N+](=O)[O-])cc(c34)C2=O)cc(OC)c1OC | > 100 µM | > 100 µM | > 100 µM | > 100 µM | > 100 µM | > 100 µM | > 100 µM | > 100 µM | > 100 µM | – | – | – | – | – | – | – | – | – | – | –
O=C(NC/C=C/CO)c1ccccc1 | – | > 100 µM | > 100 µM | > 100 µM | > 100 µM | > 100 µM | > 100 µM | > 100 µM | > 100 µM | > 100 µM | – | – | – | – | – | – | – | – | – | –
CCCCN(CCCC)C1(c2cc3ccccc3s2)CCCCC1 | 32.8 µM | 25.6 µM | 30 µM | 32.9 µM | 26.8 µM | 36.3 µM | 31.4 µM | 32.9 µM | 31.3 µM | 34 µM | – | – | – | – | – | – | – | – | – | –
C=C1CC2(C)CCC(OC(=O)C3(C)OC3C)C(C)(OC(C)=O)C2CC1=C(C)C (stereo not drawn) | – | > 100 µM | > 100 µM | > 100 µM | > 100 µM | > 100 µM | > 100 µM | > 100 µM | > 100 µM | > 100 µM | – | – | – | – | – | – | – | – | – | –
CCC1CN2CCc3cc(OC)c(OC)cc3C2CC1CC1c2cc(OC)c(OC)cc2CCN1C(=O)C(Cc1c[nH]c2ccccc12)NC(=O)OC(C)(C)C (stereo not drawn) | 16.7 µM | 5.57 µM | 3.63 µM | 16.7 µM | 9.31 µM | 9.48 µM | 6.29 µM | 7.77 µM | 2.95 µM | 7.93 µM | – | – | – | – | – | – | – | – | – | –
O=C(O)CSc1nc2ccccc2[nH]1 | > 100 µM | > 100 µM | > 100 µM | > 100 µM | > 100 µM | – | > 100 µM | > 100 µM | – | > 100 µM | – | – | – | – | – | – | – | – | – | –
CC12CCC3C(CCC4(O)C=CCCC34C=O)C1(O)CC(O)C2c1ccc(=O)oc1 (stereo not drawn) | 0.0894 µM | 0.0622 µM | 0.102 µM | 0.638 µM | 0.149 µM | 0.248 µM | 0.197 µM | 0.141 µM | 0.381 µM | 0.0646 µM | – | – | – | – | – | – | – | – | – | –
O=C1CNC(=O)N1 | > 1120 µM | > 1120 µM | > 1120 µM | > 1120 µM | > 1120 µM | > 1120 µM | > 1120 µM | > 1120 µM | > 1120 µM | > 1120 µM | – | – | – | – | – | – | – | – | – | –
Cc1ccc(NCCO)cc1 | > 100 µM | > 100 µM | > 100 µM | > 100 µM | > 100 µM | > 100 µM | > 100 µM | > 100 µM | > 100 µM | > 100 µM | – | – | – | – | – | – | – | – | – | –
CCOC(=O)C(CC(C)C)NC(=O)C(N)Cc1ccc(N(CCCl)CCCl)cc1 (stereo not drawn) | 15.3 µM | 8.53 µM | 3.1 µM | 33.7 µM | 21.9 µM | 16.6 µM | 22.4 µM | 5.97 µM | 12.1 µM | 45.1 µM | – | – | – | – | – | – | – | – | – | –
CCNc1nc2c(=O)n(C)c(=O)n(C)c2s1 | – | > 100 µM | > 100 µM | > 100 µM | > 100 µM | > 100 µM | > 100 µM | > 100 µM | > 100 µM | > 100 µM | – | – | – | – | – | – | – | – | – | –
CCOC(=O)c1csc(NC(=O)CCN2CCOCC2)n1 | > 100 µM | – | > 100 µM | > 100 µM | > 100 µM | > 100 µM | > 100 µM | > 100 µM | > 100 µM | > 100 µM | – | – | – | – | – | – | – | – | – | –
Nc1ccc(N=Nc2ccc(-c3ccc(N=Nc4c(S(=O)(=O)O)cc5cc(S(=O)(=O)O)c(N=Nc6ccc([N+](=O)[O-])cc6)c(N)c5c4O)cc3)cc2)c2cc(S(=O)(=O)O)ccc12 | > 100 µM | > 100 µM | > 100 µM | > 100 µM | > 100 µM | > 100 µM | > 100 µM | > 100 µM | > 100 µM | > 100 µM | – | – | – | – | – | – | – | – | – | –
NCCSC1(O)C(=O)c2ccccc2-c2ccccc21 (stereo not drawn) | 3.05 µM | 2.95 µM | 0.556 µM | 3.34 µM | 2.28 µM | 2.95 µM | 2.16 µM | 2.87 µM | 3.84 µM | 2.91 µM | 1.63 µM | – | – | – | – | – | – | – | – | –
COc1ccc(-c2nnc3c4ccccc4sn23)cc1 | – | – | > 100 µM | > 100 µM | – | – | > 100 µM | 80.5 µM | > 100 µM | > 100 µM | – | – | – | – | – | – | – | – | – | –
Fc1cc(C2=Nn3c(nnc3-c3cc(F)c(Cl)cc3Cl)SC2)c(Cl)cc1Cl | 60.7 µM | > 100 µM | > 100 µM | > 100 µM | 51.9 µM | > 100 µM | 64 µM | > 100 µM | 43.1 µM | 83.5 µM | 20.6 µM | 23.7 µM | 19 µM | 24.1 µM | 34.5 µM | 56.8 µM | 20.3 µM | 29.2 µM | 20.4 µM | 31.3 µM
